Values belong to the compound of their own block, whether it stands above or below them.
Columns and labels:
Format in all cases: cell-based
Listeria innocua 171 = test: Experiment 2: octanoate esterase substrates with different Indoxyl-based chromogenic markers; set-up: key: —: the symbol “-” corresponds to the absence of color or intensity; 0 corresponds to no activity; 0.1 corresponds to a trace of color; 0.5 corresponds to very pale coloration; 1 corresponds to clear but low-intensity coloration; 1.5 corresponds to a degree of coloration intermediate between scores 1 and 2; 2 corresponds to clear coloration of moderate intensity; 2.5 corresponds to a degree of coloration intermediate between scores 2 and 3; 3 corresponds to intense coloration; 3.5 corresponds to a degree of coloration intermediate between scores 3 and 4; 4 corresponds to very intense coloration; conditions: 37° C., substrate 250 mg/l
Protocol: (§1) In Table 1 above, as in the following Tables, C represents the color of the colonies after incubation, I represents the intensity of the color, and the symbol “-” corresponds to the absence of color or intensity; finally, IT defines the incubation time. It should be noted that the intensity of the color is scored on an arbitrary scale but one which is consistent for all the biological specimens and media tested. This scale is valid for this experiment as well as all those that follow. It can be defined in the following way: • 0 corresponds to no activity, • 0.1 corresponds to a trace of color, • 0.5 corresponds to very pale coloration, • 1 corresponds to clear but low-intensity coloration, • 1.5 corresponds to a degree of coloration intermediate between scores 1 and 2, • 2 corresponds to clear coloration of moderate intensity, • 2.5 corresponds to a degree of coloration intermediate between scores 2 and 3, • 3 corresponds to intense coloration, • 3.5 corresponds to a degree of coloration intermediate between scores 3 and 4, • 4 corresponds to very intense coloration.
(§2) A stock solution of each substrate at a concentration of 40 g/l was made up in a mixture of 40% Dimethylsulfoxide and 60% Tween 20. An appropriate volume was added to four Columbia-type media while cooling to give a final substrate concentration of 250 mg/l. These dishes were divided into three areas and then each area was inoculated with a suspension (density=0.5 McFarland) of microorganisms taken from either the Applicant's own collection or the ATCC. The dishes were incubated for 48 hours at 37° C. The colonies which grew were examined by eye after 24 and 48 hours of incubation. Both the color and the intensity of the color of the colonies were recorded.

Listeria ivanovii 018 = test: as above; set-up: key: —: the symbol “-” corresponds to the absence of color or intensity; 0 corresponds to no activity; 0.1 corresponds to a trace of color; 0.5 corresponds to very pale coloration; 1 corresponds to clear but low-intensity coloration; 1.5 corresponds to a degree of coloration intermediate between scores 1 and 2; 2 corresponds to clear coloration of moderate intensity; 2.5 corresponds to a degree of coloration intermediate between scores 2 and 3; 3 corresponds to intense coloration; 3.5 corresponds to a degree of coloration intermediate between scores 3 and 4; 4 corresponds to very intense coloration; conditions: 37° C., substrate 250 mg/l
Protocol: as §1, §2

Listeria species = test: Experiment 3: differentiation of Listeria species in liquid medium
Protocol: as §1
These substrates were lyophilized in the wells of API-type strips (Registered Trademark). Before use, the substrates contained in the wells were resuspended in an agar-free Columbia-type inoculation medium. […]
The intensity of the color of the colonies was recorded.

C (color of the colonies) (Listeria innocua 171; IT 48 h): gray
Compound: CCCCCCCC(=O)Oc1c[nH]c2ccc(Br)cc12 [Blue-C8, 5-Bromo-3-indolyl octanoate]
C (color of the colonies) (Listeria innocua 171; IT 24 h): —
I (intensity of the color) (Listeria innocua 171; IT 24 h): —
I (intensity of the color) (Listeria innocua 171; IT 48 h): 0.3
C (color of the colonies) (Listeria ivanovii 018; IT 24 h): —
I (intensity of the color) (Listeria ivanovii 018; IT 24 h): —
C (color of the colonies) (Listeria ivanovii 018; IT 48 h): —
I (intensity of the color) (Listeria ivanovii 018; IT 48 h): —

C (color of the colonies) (Listeria innocua 171; IT 24 h): purple
C (color of the colonies) (Listeria innocua 171; IT 48 h): purple
Compound: CCCCCCCC(=O)Oc1c[nH]c2cc(Cl)c(Br)cc12 [Magenta-C8, 5-Bromo-6-chloro-3-indolyl octanoate]
I (intensity of the color) (Listeria innocua 171; IT 24 h): 0.5
I (intensity of the color) (Listeria innocua 171; IT 48 h): 3
C (color of the colonies) (Listeria ivanovii 018; IT 24 h): —
I (intensity of the color) (Listeria ivanovii 018; IT 24 h): —
C (color of the colonies) (Listeria ivanovii 018; IT 48 h): —
I (intensity of the color) (Listeria ivanovii 018; IT 48 h): —

C (color of the colonies) (Listeria innocua 171; IT 48 h): pink
Compound: CCCCCCCC(=O)Oc1c[nH]c2cc(Cl)ccc12 [Pink-C8, 6-Chloro-3-indolyl octanoate]
C (color of the colonies) (Listeria innocua 171; IT 24 h): —
I (intensity of the color) (Listeria innocua 171; IT 24 h): —
I (intensity of the color) (Listeria innocua 171; IT 48 h): 0.3
C (color of the colonies) (Listeria ivanovii 018; IT 24 h): —
I (intensity of the color) (Listeria ivanovii 018; IT 24 h): —
C (color of the colonies) (Listeria ivanovii 018; IT 48 h): —
I (intensity of the color) (Listeria ivanovii 018; IT 48 h): —

C (color of the colonies) (Listeria innocua 171; IT 48 h): turquoise
Compound: CCCCCCCC(=O)Oc1c[nH]c2ccc(Br)c(Cl)c12 [X-C8, 5-Bromo-4-chloro-3-indolyl octanoate]
differentiation between L. monocytogenes and other species belonging to the same genus (Listeria species): gave a contrast in color
I (intensity of the color) (Listeria innocua 171; IT 24 h): —
I (intensity of the color) (Listeria innocua 171; IT 48 h): 0.3
C (color of the colonies) (Listeria ivanovii 018; IT 24 h): —
I (intensity of the color) (Listeria ivanovii 018; IT 24 h): —
C (color of the colonies) (Listeria ivanovii 018; IT 48 h): —
I (intensity of the color) (Listeria ivanovii 018; IT 48 h): —
